Counter-ions that a name gives are not always drawn.
Target: T1, human neutrophil elastase (Homo sapiens, UniProt P08246)
T1 sequence (P08246 30-267): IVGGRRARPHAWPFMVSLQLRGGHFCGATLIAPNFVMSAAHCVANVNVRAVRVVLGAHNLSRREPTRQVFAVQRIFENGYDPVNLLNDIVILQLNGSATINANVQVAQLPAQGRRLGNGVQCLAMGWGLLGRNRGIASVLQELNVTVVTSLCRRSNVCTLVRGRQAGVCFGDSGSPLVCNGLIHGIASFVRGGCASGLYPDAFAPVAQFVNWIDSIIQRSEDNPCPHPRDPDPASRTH
Experiment: In vitro assay of human neutrophil elastase (HNE)
Assay type: biochemical
Details: 118 nM purified human neutrophil elastase, pH 8.6, 15 min incubation at 30° C., MeO-succinyl-alanyl-alanyl-prolyl-valyl-p-nitroanilide substrate; read-out: HNE IC50
In short: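 Residual activity was taken as the 10 min rate of absorbance rise at 405 nm after adding 0.6 mM MeO-succinyl-AAPV-p-nitroanilide. Curve fitting of activity against concentration gave IC50.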

SMILES	IC50
CC(C)[C@H]1C(=O)N(S(C)(=O)=O)[C@H]2CCN(S(=O)(=O)c3ccc(N)cc3)[C@H]12 (relative stereo) [Example 237, rel-(3R,3aR,6aS)-4-(4-Amino-benzenesulfonyl)-3-isopropyl-1-methanesulfonyl-hexahydro-pyrrolo[3,2-b]pyrrol-2-one]	29 nM
CCCCOc1ccc(C(=O)N2CC[C@H]3[C@H]2[C@@H](CCC)C(=O)N3S(C)(=O)=O)cc1 (relative stereo) [Example 239, rel-(3R,3aR,6aS)-4-(4-Butoxy-benzoyl)-1-methanesulfonyl-3-propyl-hexahydro-pyrrolo[3,2-b]pyrrol-2-one]	18 nM
CCC[C@H]1C(=O)N(S(C)(=O)=O)[C@H]2CCN(C(=O)c3cccn3C)[C@H]12 (relative stereo) [Example 240, rel-(3R,3aR,6aS)-1-Methanesulfonyl-4-(1-methyl-1H-pyrrole-2-carbonyl)-3-propyl-hexahydro-pyrrolo[3,2-b]pyrrol-2-one]	33 nM
CCC[C@H]1C(=O)N(S(C)(=O)=O)[C@H]2CCN(C(=O)c3ccc(NC(C)=O)nc3)[C@H]12 (relative stereo) [Example 241, rel-N-[5-(4-Methanesulfonyl-5-oxo-6R-propyl-hexahydro(3aS,6aR)-pyrrolo[3,2-b]pyrrole-1-carbonyl)-pyridin-2-yl]-acetamide]	22 nM
CCC[C@H]1C(=O)N(S(C)(=O)=O)[C@H]2CCN(C(=O)c3ccc[nH]3)[C@H]12 (relative stereo) [Example 242, rel-(3R,3aR,6aS)-1-Methanesulfonyl-3-propyl-4-(1H-pyrrole-2-carbonyl)-hexahydro-pyrrolo[3,2-b]pyrrol-2-one]	22 nM
CCC[C@H]1C(=O)N(S(C)(=O)=O)[C@H]2CCN(C(=O)c3cccnc3)[C@H]12 (relative stereo) [Example 247, rel-(3R,3aR,6aS)-1-Methanesulfonyl-3-propyl-4-(pyridine-3-carbonyl)-hexahydro-pyrrolo[3,2-b]pyrrol-2-one]	28 nM
CC(C)[C@H]1C(=O)N(S(C)(=O)=O)[C@H]2CCN(C(=O)CCCC3CCNCC3)[C@H]12 (relative stereo) [Example 255, rel-(3R,3aR,6aS)-3-Isopropyl-1-methanesulfonyl-4-(4-piperidin-4-yl-butyryl)-hexahydro-pyrrolo[3,2-b]pyrrol-2-one hydrochloride]	144 nM
CC(C)[C@H]1C(=O)N(S(C)(=O)=O)[C@H]2CCN(C(=O)CCCC3CCN(C)CC3)[C@H]12 (relative stereo) [Example 256, rel-(3R,3aR,6aS)-3-Isopropyl-1-methanesulfonyl-4-[4-(1-methyl-piperidin-4-yl)-butyryl]-hexahydro-pyrrolo[3,2-b]pyrrol-2-one hydrochloride]	78 nM

Now from value to molecule:

IC50	SMILES
9 nM	CCC[C@H]1C(=O)N(S(C)(=O)=O)[C@H]2CCN(C(=O)c3ccccn3)[C@H]12 (relative stereo) [Example 238, rel-(3R,3aR,6aS)-1-Methanesulfonyl-3-propyl-4-(pyridine-2-carbonyl)-hexahydro-pyrrolo[3,2-b]pyrrol-2-one]
11 nM	CCC[C@H]1C(=O)N(S(C)(=O)=O)[C@H]2CCN(C(=O)c3ccc(C(F)(F)F)cc3)[C@H]12 (relative stereo) [Example 244, rel-(3R,3aR,6aS)-1-Methanesulfonyl-3-propyl-(4-trifluoromethyl-benzoyl)-hexahydro-pyrrolo[3,2-b]pyrrol-2-one]
9 nM	CCC[C@H]1C(=O)N(S(C)(=O)=O)[C@H]2CCN(C(=O)c3ccc(S(C)(=O)=O)cc3)[C@H]12 (relative stereo) [Example 245, rel-(3R,3aR,6aS)-1-Methanesulfonyl-4-(4-methanesulfonyl-benzoyl)-3-propyl-hexahydro-pyrrolo[3,2-b]pyrrol-2-one]
21 nM	CCC[C@H]1C(=O)N(S(C)(=O)=O)[C@H]2CCN(C(=O)c3ccncc3)[C@H]12 (relative stereo) [Example 246, rel-(3R,3aR,6aS)-1-Methanesulfonyl-3-propyl-4-(pyridine-4-carbonyl)-hexahydro-pyrrolo[3,2-b]pyrrol-2-one]

Source: patent publication US6215002A, “Pyrrolopyrrolone derivatives as inhibitors of neutrophil elastase” (priority 1996, dated 2001)
